Test results published in article PMC9617622 (Journal of medicinal chemistry, 2021).
One block for each molecule: values may come before it.

Tests used:
human D2L receptor = human D2L receptor (Homo sapiens, UniProt P14416); details: for binding affinity at D2R (in words): result in words; for decrease in binding affinity at D2R compared to eticlopride: relative to eticlopride
D3R [1] = molecular target: T1, D3R (Homo sapiens, UniProt P35462); details: for binding affinity at D3R (in words) / D2R/D3R preference (in words): result in words; for decrease in binding affinity at D3R compared to eticlopride: relative to eticlopride; for D2R/D3R preference (in words): D3R v. D2R binding; for Ki difference, O-alkylated v. N-alkylated linker with the same SP: D3R, 48 v. 15 and 49 v. 13
D3R [2] = molecular target: T1, D3R; details: result in words; compared to full agonist quinpirole and antagonist eticlopride

T1 sequence (P35462 whole entry): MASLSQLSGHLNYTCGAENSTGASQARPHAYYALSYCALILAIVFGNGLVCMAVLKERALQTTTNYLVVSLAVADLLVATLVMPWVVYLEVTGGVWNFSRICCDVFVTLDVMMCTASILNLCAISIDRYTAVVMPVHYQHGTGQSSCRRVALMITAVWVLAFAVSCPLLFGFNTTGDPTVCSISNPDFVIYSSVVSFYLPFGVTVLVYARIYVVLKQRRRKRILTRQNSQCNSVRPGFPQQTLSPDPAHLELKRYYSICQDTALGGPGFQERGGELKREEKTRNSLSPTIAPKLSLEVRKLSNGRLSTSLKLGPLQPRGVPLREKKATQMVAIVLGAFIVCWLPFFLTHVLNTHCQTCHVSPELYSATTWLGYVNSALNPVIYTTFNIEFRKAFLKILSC
Sequence of human D2L receptor (P14416 whole entry): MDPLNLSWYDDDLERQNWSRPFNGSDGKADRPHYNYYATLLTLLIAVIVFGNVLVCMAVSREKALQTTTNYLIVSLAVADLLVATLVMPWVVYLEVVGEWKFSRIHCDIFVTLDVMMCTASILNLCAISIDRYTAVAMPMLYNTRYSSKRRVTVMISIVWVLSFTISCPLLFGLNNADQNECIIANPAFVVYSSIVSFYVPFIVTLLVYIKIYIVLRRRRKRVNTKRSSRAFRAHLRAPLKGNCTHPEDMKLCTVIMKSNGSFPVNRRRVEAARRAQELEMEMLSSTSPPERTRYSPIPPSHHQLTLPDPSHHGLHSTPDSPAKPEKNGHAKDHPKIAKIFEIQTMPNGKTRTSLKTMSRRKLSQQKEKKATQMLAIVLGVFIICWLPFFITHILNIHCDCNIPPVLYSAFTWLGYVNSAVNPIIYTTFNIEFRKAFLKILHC

binding affinity at D2R (in words) (human D2L receptor): low nanomolar range | binding affinity at D3R (in words) (D3R [1]): low nanomolar range
Structure (SMILES): CCc1cc(Cl)c(OC)c(C(=O)NC[C@@H]2C[C@@H](OCCCc3ccccc3)CN2)c1O [50a, 3-Chloro-5-ethyl-6-hydroxy-2-methoxy-N-(((2S,4R)-4-(3-phenylpropoxy)pyrrolidin-2-yl)methyl)benzamide]

Structure (SMILES): CCc1cc(Cl)c(OC)c(C(=O)NC[C@@H]2C[C@@H](OCCCCOCc3ccccc3)CN2)c1O [50b, N-(((2S,4R)-4-(4-(Benzyloxy)butoxy)pyrrolidin-2-yl)methyl)-3-chloro-5-ethyl-6-hydroxy-2-methoxybenzamide]
binding affinity at D2R (in words) (human D2L receptor): low nanomolar range | binding affinity at D3R (in words) (D3R [1]): low nanomolar range

decrease in binding affinity at D2R compared to eticlopride (human D2L receptor): 19 fold | decrease in binding affinity at D3R compared to eticlopride (D3R [1]): 4 fold
Structure (SMILES): CCc1cc(Cl)c(OC)c(C(=O)NC[C@@H]2CCCN2)c1O.Cl [compound 5, (S)-3-chloro-5-ethyl-6-hydroxy-2-methoxy-N-(pyrrolidin-2-ylmethyl)benzamide hydrochloride, reference compound]

decrease in binding affinity at D2R compared to eticlopride (human D2L receptor): 6 fold | decrease in binding affinity at D3R compared to eticlopride (D3R [1]): 2.6 fold
Structure (SMILES): CCCN1CCC[C@H]1CNC(=O)c1c(O)c(CC)cc(Cl)c1OC [compound 6, (S)-3-Chloro-5-ethyl-6-hydroxy-2-methoxy-N-((1-propylpyrrolidin-2-yl)methyl)benzamide]

decrease in binding affinity at D2R compared to eticlopride (human D2L receptor): 1800 fold | decrease in binding affinity at D3R compared to eticlopride (D3R [1]): 268 fold
Structure (SMILES): CCc1cc(Cl)c(OC)c(C(=O)NC[C@@H]2CCCN2Cc2ccccc2)c1O [compound 7, (S)-N-((1-Benzylpyrrolidin-2-yl)methyl)-3-chloro-5-ethyl-6-hydroxy-2-methoxybenzamide]

binding affinity at D2R (in words) (human D2L receptor): low affinity | binding affinity at D3R (in words) (D3R [1]): low affinity
Structure (SMILES): CCc1cc(Cl)c(OC)c(C(=O)NC[C@@H]2CCCN2Cc2ccccc2)c1OCc1ccccc1 [compound 8, (S)-2-(Benzyloxy)-N-((1-benzylpyrrolidin-2-yl)methyl)-5-chloro-3-ethyl-6-methoxybenzamide]

D2R/D3R preference (in words) (D3R [1]): equiactive at D2R and D3R
Structure (SMILES): CCc1cc(Cl)c(OC)c(C(=O)NC[C@@H]2CCCN2CCc2c(C)nc3n(c2=O)CCCC3)c1O [compound 10, (S)-3-Chloro-5-ethyl-6-hydroxy-2-methoxy-N-((1-(2-(2-methyl-4-oxo-6,7,8,9-tetrahydro-4H-pyrido[1,2-a]pyrimidin-3-yl)ethyl)pyrrolidin-2-yl)methyl)benzamide]

preference for D3R v. D2R (D3R [1]; ratio of Ki D2R to Ki D3R): 3.6 fold
Structure (SMILES): CCc1cc(Cl)c(OC)c(C(=O)NC[C@@H]2CCCN2CCCCOc2ccc3c(c2)NC(=O)CC3)c1O [compound 11, (S)-3-Chloro-5-ethyl-6-hydroxy-2-methoxy-N-((1-(4-((2-oxo-1,2,3,4-tetrahydroquinolin-7-yl)oxy)butyl)pyrrolidin-2-yl)methyl)benzamide]

D2R/D3R preference (in words) (D3R [1]): modest D3R preference was not seen
Structure (SMILES): CCc1cc(Cl)c(OC)c(C(=O)NC[C@@H]2CCCN2CCCCNC(=O)c2cc3ccccc3o2)c1O [compound 13, (S)-N-(4-(2-((3-Chloro-5-ethyl-6-hydroxy-2-methoxybenzamido)methyl)pyrrolidin-1-yl)butyl) benzofuran-2-carboxamide]

Ki difference, O-alkylated v. N-alkylated linker with the same SP (D3R [1]): ~ 56 fold
Structure (SMILES): CCc1cc(Cl)c(OC)c(C(=O)NC[C@@H]2C[C@@H](OCCCCNC(=O)c3cc4ccccc4[nH]3)CN2CC)c1O [compound 48, N-(4-(((3R,5S)-5-((3-Chloro-5-ethyl-6-hydroxy-2-methoxybenzamido)methyl)-1-ethylpyrrolidin-3-yl)oxy)butyl)-1H-indole-2-carboxamide]

Ki difference, O-alkylated v. N-alkylated linker with the same SP (D3R [1]): ~ 31 fold
Structure (SMILES): CCc1cc(Cl)c(OC)c(C(=O)NC[C@@H]2C[C@@H](OCCCCNC(=O)c3cc4ccccc4o3)CN2CC)c1O [compound 49, N-(4-(((3R,5S)-5-((3-chloro-5-ethyl-6-hydroxy-2-methoxybenzamido)methyl)-1-ethylpyrrolidin-3-yl)oxy)butyl)benzofuran-2-carboxamide]

Structure (SMILES): CCc1cc(Cl)c(OC)c(C(=O)NC[C@@H]2C[C@@H](OCCCCO)CN2)c1O [compound 51, 3-Chloro-5-ethyl-6-hydroxy-N-(((2S,4R)-4-(4-hydroxybutoxy)pyrrolidin-2-yl)methyl)-2-methoxybenzamide]
binding affinity at D2R (in words) (human D2L receptor): low nanomolar range | binding affinity at D3R (in words) (D3R [1]): low nanomolar range

functional efficacy at D3R (Go BRET activation) (D3R [2]): reference antagonist
Structure (SMILES): CCc1cc(Cl)c(OC)c(C(=O)NC[C@@H]2CCCN2CC)c1O [eticlopride]
